Assay results taken from the supplement of paper PMC5722580.

Experiments:
SNK6 = test: drug sensitivity score (viability inhibition); higher = more sensitive; details: 72 h; IL2 2.5 ng/ml
Description: (§1)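 NK-cell leukemia/lymphoma cell lines (3,000 cells/well) were cultured with IL2 2.5 ng/ml in 384-well drug plates (5-8 concentrations over a 10,000-fold range) for 72 h at 37 C; viability was read with CellTiter-Glo. DSS is a normalised area under the dose-response curve; the experiment was repeated twice.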

NK-YS = test: as above; details: 72 h; IL2 2.5 ng/ml
Description: as §1

YT = test: as above; details: 72 h; IL2 2.5 ng/ml
Description: as §1

NK-92 = test: as above; details: 72 h; IL2 2.5 ng/ml
Description: as §1

KAI3 = test: as above; details: 72 h; IL2 2.5 ng/ml
Description: as §1

KHYG-1 = test: as above; details: 72 h; IL2 2.5 ng/ml
Description: as §1

NKL = test: as above; details: 72 h; IL2 2.5 ng/ml
Description: as §1

HEK293-SIE STAT3 Y640F = test: drug sensitivity score (inhibition of STAT3 luciferase reporter); higher = stronger inhibition; details: 6 h; IL6 0 ng/ml
Description: (§2)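 HEK293 cells with a STAT3-inducible (SIE) luciferase reporter, stably expressing WT STAT3 (IL6 100 ng/ml) or Y640F STAT3 (no IL6), were incubated 6 h with drugs in 384-well plates (5-8 concentrations over a 10,000-fold range); luciferase was read with ONE-Glo. DSS is a normalised area under the dose-response curve; values are the mean of two experiments.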

HEK293-SIE STAT3 WT = test: as above; details: 6 h; STAT3: WT; IL6 100 ng/ml
Description: as §2

Row | Structure (SMILES) | drug sensitivity score (SNK6) | drug sensitivity score (NK-YS) | drug sensitivity score (YT) | drug sensitivity score (NK-92) | drug sensitivity score (KAI3) | drug sensitivity score (KHYG-1) | drug sensitivity score (NKL) | drug sensitivity score (HEK293-SIE STAT3 Y640F) | drug sensitivity score (HEK293-SIE STAT3 WT)
1 | CCN(CC)CCOc1ccc(C(=C(Cl)c2ccccc2)c2ccccc2)cc1 [Clomifene] | 5.13 DSS | 2.67 DSS | 4.23 DSS | 5.49 DSS | 5.61 DSS | 5.07 DSS | 4.4 DSS | 0 DSS | 1.9 DSS
2 | C[C@H]1C[C@@H]2[C@H]([C@@H](O)C[C@@]3(C)[C@H]2CC[C@]3(O)C(=O)CO)[C@@]2(C)C=CC(=O)C=C12 [Methylprednisolone] | 0.065 DSS | 3.19 DSS | 8.81 DSS | 0 DSS | 1.27 DSS | 10.5 DSS | 16 DSS | 0.4 DSS | 0 DSS
3 | CNC(=O)c1cc(Oc2ccc(NC(=O)Nc3ccc(Cl)c(C(F)(F)F)c3)c(F)c2)ccn1 [Regorafenib] | 10.1 DSS | 7.25 DSS | 8.71 DSS | 8.97 DSS | 2.25 DSS | 6.89 DSS | 5.14 DSS | 5.5 DSS | 6.65 DSS
4 | COc1ncc(-c2ccc3nccc(-c4ccnnc4)c3c2)cc1NS(=O)(=O)c1ccc(F)cc1F [Omipalisib] | 5.15 DSS | 12.1 DSS | 10.9 DSS | 11.6 DSS | 6.45 DSS | 9.27 DSS | 11.3 DSS | 8.15 DSS | 5.9 DSS
5 | CC(C)n1nc(-c2ccc3oc(N)nc3c2)c2c(N)ncnc21 [INK128] | 8.08 DSS | 11.8 DSS | 11.9 DSS | 10.7 DSS | 7.66 DSS | 7.21 DSS | 16.2 DSS | 12 DSS | 13.8 DSS
6 | Cc1c2oc3c(C)ccc(C(=O)N[C@@H]4C(=O)N[C@H](C(C)C)C(=O)N5CCC[C@H]5C(=O)N(C)CC(=O)N(C)[C@@H](C(C)C)C(=O)O[C@@H]4C)c3nc-2c(C(=O)N[C@@H]2C(=O)N[C@H](C(C)C)C(=O)N3CCC[C@H]3C(=O)N(C)CC(=O)N(C)[C@@H](C(C)C)C(=O)O[C@@H]2C)c(N)c1=O [Dactinomycin] | 32.2 DSS | 38.2 DSS | 35 DSS | 16.5 DSS | 23.8 DSS | 29.3 DSS | 36.5 DSS | 18.4 DSS | 18.9 DSS
7 | CO[C@H]1C[C@@H]2CC[C@@H](C)[C@@](O)(O2)C(=O)C(=O)N2CCCC[C@H]2C(=O)O[C@H]([C@H](C)C[C@@H]2CC[C@@H](OC(=O)C(C)(CO)CO)[C@H](OC)C2)CC(=O)[C@H](C)/C=C(\C)[C@@H](O)[C@@H](OC)C(=O)[C@H](C)C[C@H](C)/C=C/C=C/C=C/1C [Temsirolimus] | 11.6 DSS | 18.6 DSS | 14 DSS | 4.18 DSS | 7.48 DSS | 10.1 DSS | 20.6 DSS | 11.8 DSS | 8.55 DSS
8 | C[C@@]1(C(=O)Nc2ccc(F)nc2)CCCN1c1nc(Nc2cc(C3CC3)n[nH]2)c2cccn2n1 | 10.9 DSS | 11.1 DSS | 5.74 DSS | 5.6 DSS | 4.45 DSS | 7.86 DSS | 2.75 DSS | 8.23 DSS | 1.95 DSS
9 | COc1ccccc1S(=O)(=O)Nc1ccc2c(c1)CN(C)C(=O)N2 [PFI-1] | 4.16 DSS | 6.22 DSS | 3.24 DSS | 0.03 DSS | 1.7 DSS | 7.25 DSS | 4.02 DSS | 0 DSS | 6.65 DSS
10 | CCNC(=O)c1noc(-c2cc(C(C)C)c(O)cc2O)c1-c1ccc(CN2CCOCC2)cc1 [Luminespib] | 19.6 DSS | 26.9 DSS | 18.6 DSS | 27.4 DSS | 25.6 DSS | 24 DSS | 29.1 DSS | 12.8 DSS | 16.3 DSS
11 | C[C@@H]1CC(=O)c2c(ccc3c2C(=O)c2cccc(O)c2C3=O)C1 [STA-21] | 2.24 DSS | 9.69 DSS | 5.75 DSS | 4.92 DSS | 2.22 DSS | 10 DSS | 11.5 DSS | 11.5 DSS | 10.3 DSS
12 | CO[C@@H](C(=O)N1Cc2[nH]nc(NC(=O)c3ccc(N4CCN(C)CC4)cc3)c2C1)c1ccccc1 [Danusertib] | 14.4 DSS | 12.9 DSS | 6.55 DSS | 6.91 DSS | 7.82 DSS | 13 DSS | 5.43 DSS | 5.2 DSS | 6.8 DSS
13 | N#CC[C@H](C1CCCC1)n1cc(-c2ncnc3[nH]ccc23)cn1 [Ruxolitinib] | 22.2 DSS | 19.5 DSS | 15.8 DSS | 21.8 DSS | 27.5 DSS | 30.5 DSS | 26.9 DSS | 13.2 DSS | 34.1 DSS
14 | COc1cc(Nc2c(C#N)cnc3cc(OCCCN4CCN(C)CC4)c(OC)cc23)c(Cl)cc1Cl [Bosutinib] | 5.08 DSS | 5.25 DSS | 5.38 DSS | 7.49 DSS | 6.47 DSS | 7.49 DSS | 5.37 DSS | 8.4 DSS | 0.775 DSS
15 | CC(=O)c1c(C)c2cnc(Nc3ccc(N4CCNCC4)cn3)nc2n(C2CCCC2)c1=O [Palbociclib] | 0 DSS | 6.84 DSS | 5.11 DSS | 5.78 DSS | 3.02 DSS | 15.5 DSS | 9.52 DSS | 2.8 DSS | 4.85 DSS
16 | CC1(C)CCC(c2ccc(Cl)cc2)=C(CN2CCN(c3ccc(C(=O)NS(=O)(=O)c4ccc(N[C@H](CCN5CCOCC5)CSc5ccccc5)c(S(=O)(=O)C(F)(F)F)c4)cc3)CC2)C1 [Navitoclax] | 39.1 DSS | 27.6 DSS | 23.3 DSS | 14.2 DSS | 39.8 DSS | 25.9 DSS | 22.4 DSS | 0.5 DSS | 0 DSS
17 | Cc1ccc(C(=O)Nc2ccc(CN3CCN(C)CC3)c(C(F)(F)F)c2)cc1C#Cc1cnc2cccnn12 [Ponatinib] | 0 DSS | 2.28 DSS | 4.26 DSS | 1.39 DSS | 3.2 DSS | 3.2 DSS | 4.93 DSS | 2.8 DSS | 2.95 DSS
18 | COc1ccc(-c2ccc3c(N4CCOC[C@@H]4C)nc(N4CCOC[C@@H]4C)nc3n2)cc1CO [AZD8055] | 14.9 DSS | 19.6 DSS | 16.7 DSS | 16.3 DSS | 14.1 DSS | 16.7 DSS | 23.3 DSS | 18.6 DSS | 20.2 DSS
19 | COc1c(C)cnc(Cn2cnc3c(Cl)nc(N)nc32)c1C [BIIB021] | 25.4 DSS | 24.7 DSS | 22.2 DSS | 23 DSS | 26 DSS | 26.4 DSS | 21.9 DSS | 9.85 DSS | 15.3 DSS
20 | CNC(=O)c1cc(Oc2ccc(NC(=O)Nc3ccc(Cl)c(C(F)(F)F)c3)cc2)ccn1 [Sorafenib] | 4.36 DSS | 0.00415 DSS | 0 DSS | 0.365 DSS | 0 DSS | 0.013 DSS | 0 DSS | 1.6 DSS | 2.1 DSS
